Experimental data taken from US20230152325A1, “Active Alpha-5-Beta-1 Integrin As A Biomarker For Enhancing Tumor Treatment Efficacy” (Institute For Cancer Research d/b/a The Research Institute …, priority 2016, published 2023).
Each block holds one molecule with its values, some of them ahead of it.

How the values were obtained:
[1] = system: naïve renal fibroblasts cultured within D-ECM; test: ECM prompted myofibroblastic maintenance (α-SMA / F-actin immunofluorescence), RCC model; assay type: cell-based, human; conditions: for D-ECM induced myofibroblastic phenotype (α-SMA expression / stress fiber localization), in words: naïve cells within D-ECM treated with the agent; for α-SMA expression, Median / α-SMA stress fiber localization, Median: normalized to untreated D-ECM = 1
Description: (§1) ECM prompted myofibroblastic maintenance. Human naïve or assorted murine fibroblasts were incubated for 45 minutes prior to overnight culturing within assorted ECMs, prepared as above, in the presence or absence of 50 μg/ml SNAKA51, 60 μg/m ALULA, 250 μg/m mAb16, or BMAS diluted as instructed by the manufacturer (Millipore, Temecula, Calif.), IgG control, DMSO or small molecule inhibitors FAK (PF573,228) and SRC family kinases (PP2). ECM-induced phenotypes were assessed via RT-qPCR, Western Blot or immunofluorescence.
(§2) Naïve/innate PDAC and RCC patient harvested fibroblasts were cultured overnight within normal (N-ECM) vs. desmoplastic (D-ECM or DECMs that were produced in the presence or absence of TGFβ1-receptor inhibition (D+TGFβi) or vehicle control (D+DMSO). Alternatively, naïve cells cultured within D-ECMs were treated with either TGFβ1-receptor inhibitor (TGFβ-i), vehicle (DMSO), functional blocking antibodies anti-αvβ5 integrin (alula, αvβ5-i), anti-α5β1 integrin (mAb16, α5β1-i), combinations of both functional blocking antibodies (β5-i+α5-i), functional stabilizing anti α5β1 integrin (SNAKA51; α5β1-act) or non-immunized isotypic antibodies (IgG). All samples were subjected to indirect immunofluorescent labeling of desmoplastic marker α-SMA and counterstained with fluorescently labeled phalloidin to detect actin stress fibers (F-actin) and determine the co-localization ratio. Monochromatic “heat map” images (see, FIG. 2A) represent α-SMA intensity values. A 255 tones intensity scale bar is shown to the right. A summary of all measured values is graphed in FIG. 2B. Additional monochromatic images indicative of double labeled staining for α-SMA and F-actin are in FIG. 2C while levels of total α-SMA localized at corresponding stress fibers are plotted in FIG. 2D. Untreated D-ECM conditions were included in all experiments summarized in this figure and serve as normalization (1 arbitrary unit; a.u.) controls. Matching values including statistical significances are listed in accompanying Table 1. All scale bars represent 50 μm. TGFβ activity was needed to maintain functional D-ECM production but was dispensable when testing D-ECM induced responses, while the later were obstructed by αvβ5 integrin inhibition or active α5β1 integrin stabilization.

[2] = system: naïve pancreatic fibroblasts cultured within D-ECM; test: ECM prompted myofibroblastic maintenance (α-SMA / F-actin immunofluorescence), PDAC model; assay type: cell-based, human; conditions: for D-ECM induced myofibroblastic phenotype (α-SMA expression / stress fiber localization), in words: naïve cells within D-ECM treated with the agent; for α-SMA expression, Median / α-SMA stress fiber localization, Median: normalized to untreated D-ECM = 1
Description: as §1, §2

[3] = system: PDAC desmoplastic fibroblasts (D-ECM production); test: ECM fiber orientation analysis of D-ECM produced by PDAC-associated fibroblasts; assay type: cell-based, human
Description: Un-extracted 3D cultures were either processed for phenotypic characterization, ECM alignment measurements, or decellularized to assess maintenance of myofibroblastic phenotype. ECM fiber orientation analysis. Fibronectin channel monochromatic images were analyzed via Imager OrientationJ plugin. Numerical outputs were normalized by setting mode angles to 0° and correcting angle spreads to fluctuate between −90° and 90°. Angle spreads for each experimental condition, corresponding to a minimum of three experimental repetitions and five image acquisitions per condition were plotted and their standard deviations calculated. The percentage of fibers oriented between −15° and 15° was determined for each normalized image-obtained data. FIGS. 1A through 1E show desmoplastic (D)-ECM remodeling by TGFβ-blockage bestows normal (N)-ECM-like phenotypes. Fibroblasts were isolated from pancreatic ductal adenocarcinoma (PDAC) and renal cell carcinoma (RCC) surgical samples and their ECM producing phenotypes were assessed prior to ECM decellularization via fibroblastic extraction. […] Complementary low/heterogeneous vs. high/organized α-SMA levels, with heterogeneous/round vs. elongated/spindled cell nuclei, and disorganized/woven vs. parallel/aligned ECM fibers are evident in the representative images. […] Scale bars represent 50 μm.

[4] = system: normal fibroblasts (N-ECM assembly); test: N-ECM assembly by normal fibroblasts under TGFβ1-receptor blockage; assay type: cell-based, human; conditions: blockage of TGFβ signaling during ECM production
Text: (§3) Preparation of fibroblasts-derived 3D ECMs. Extracellular matrices (ECMs) were obtained in the presence or absence of TGFβ1R small molecule inhibitor SB431542, DMSO, conformation-dependent anti-active α5 integrin functional antibody (SNAKA51), functional-blocking anti αvβ5 integrin (ALULA), or species matched non-immunized isotypic antibodies. Un-extracted 3D cultures were either processed for phenotypic characterization, ECM alignment measurements, or decellularized to assess maintenance of myofibroblastic phenotype.
(§4) FIGS. 7A through 7F show characterization of human fibroblastic cells isolated from PDAC and RCC surgical samples. […] Isolated cells were probed for desmoplastic markers α-SMA and palladin while Panc1 (a pancreatic cancer cell line) cells were used as epithelial to mesenchyme […] (EMT) controls known to express both epithelial and mesenchymal markers. Assorted markers are shown in white while counterstained Hoechst identified nuclei are shown in yellow. […] TGFβ inhibition causes disorganization of desmoplastic and ablation of normal ECMs. […] Data were normalized to total protein concentration and to D-ECM readouts; results are expressed as arbitrary units (A.U.). […] All scale bars represent 50 μm.

[5] = system: RCC desmoplastic fibroblasts (D-ECM production); test: ECM fiber orientation analysis of D-ECM produced by RCC-associated fibroblasts; assay type: cell-based, human
Text: as §3
ECM fiber orientation analysis. Fibronectin channel monochromatic images were analyzed via Imager OrientationJ plugin. […] Angle spreads for each experimental condition, corresponding to a minimum of three experimental repetitions and five image acquisitions per condition were plotted and their standard deviations calculated. The percentage of fibers oriented between −15° and 15° was determined for each normalized image-obtained data.
FIGS. 1A through 1E show desmoplastic (D)-ECM remodeling by TGFβ-blockage bestows normal (N)-ECM-like phenotypes. Fibroblasts were isolated from pancreatic ductal adenocarcinoma (PDAC) and renal cell carcinoma (RCC) surgical samples and their ECM producing phenotypes were assessed prior to ECM decellularization via fibroblastic extraction. […]

[6] = system: TGFβ levels stored within ECMs; test: TGFβ protein levels in 3D unextracted culture lysates by ELISA; assay type: cell-based, human; conditions: inhibitor used during D-ECM production; <0.0001
Text: as §4

[7] = molecular target: alpha-v-beta-5 (αvβ5) integrin, human (human) (UniProt P06756); test: cell-based or functional assay
[8] = molecular target: αvβ5 integrin, murine (murine) (UniProt P43406); test: cell-based or functional assay
Sequence of UniProt P43406 (P43406 31-1044, chain 1 of 2): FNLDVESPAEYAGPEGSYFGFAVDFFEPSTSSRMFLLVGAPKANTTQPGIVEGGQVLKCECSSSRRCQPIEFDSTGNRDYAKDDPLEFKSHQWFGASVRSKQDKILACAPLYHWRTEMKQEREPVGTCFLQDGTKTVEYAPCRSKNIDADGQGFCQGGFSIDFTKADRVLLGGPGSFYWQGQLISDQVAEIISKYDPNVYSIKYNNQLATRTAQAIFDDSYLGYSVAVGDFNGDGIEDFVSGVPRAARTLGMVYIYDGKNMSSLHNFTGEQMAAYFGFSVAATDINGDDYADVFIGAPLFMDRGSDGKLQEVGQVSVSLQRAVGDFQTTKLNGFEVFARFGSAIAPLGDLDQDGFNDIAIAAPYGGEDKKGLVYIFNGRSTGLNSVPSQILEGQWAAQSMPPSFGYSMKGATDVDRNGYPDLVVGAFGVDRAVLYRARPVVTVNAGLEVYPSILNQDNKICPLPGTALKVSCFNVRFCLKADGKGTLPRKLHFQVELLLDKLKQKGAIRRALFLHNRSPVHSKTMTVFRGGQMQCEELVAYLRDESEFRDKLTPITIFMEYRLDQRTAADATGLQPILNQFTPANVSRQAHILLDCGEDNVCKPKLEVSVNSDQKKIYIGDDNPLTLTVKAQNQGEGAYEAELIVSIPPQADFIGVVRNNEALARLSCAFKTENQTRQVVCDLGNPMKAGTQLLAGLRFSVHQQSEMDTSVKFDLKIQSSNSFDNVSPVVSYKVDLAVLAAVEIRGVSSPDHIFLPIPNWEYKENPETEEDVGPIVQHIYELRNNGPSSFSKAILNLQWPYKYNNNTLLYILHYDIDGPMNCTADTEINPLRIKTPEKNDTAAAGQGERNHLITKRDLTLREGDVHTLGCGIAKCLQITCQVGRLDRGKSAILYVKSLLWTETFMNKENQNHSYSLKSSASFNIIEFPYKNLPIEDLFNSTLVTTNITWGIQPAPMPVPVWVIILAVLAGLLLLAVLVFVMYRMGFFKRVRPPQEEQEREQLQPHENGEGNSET
Sequence of UniProt P43406 (O70309 24-798, chain 2 of 2, further chain): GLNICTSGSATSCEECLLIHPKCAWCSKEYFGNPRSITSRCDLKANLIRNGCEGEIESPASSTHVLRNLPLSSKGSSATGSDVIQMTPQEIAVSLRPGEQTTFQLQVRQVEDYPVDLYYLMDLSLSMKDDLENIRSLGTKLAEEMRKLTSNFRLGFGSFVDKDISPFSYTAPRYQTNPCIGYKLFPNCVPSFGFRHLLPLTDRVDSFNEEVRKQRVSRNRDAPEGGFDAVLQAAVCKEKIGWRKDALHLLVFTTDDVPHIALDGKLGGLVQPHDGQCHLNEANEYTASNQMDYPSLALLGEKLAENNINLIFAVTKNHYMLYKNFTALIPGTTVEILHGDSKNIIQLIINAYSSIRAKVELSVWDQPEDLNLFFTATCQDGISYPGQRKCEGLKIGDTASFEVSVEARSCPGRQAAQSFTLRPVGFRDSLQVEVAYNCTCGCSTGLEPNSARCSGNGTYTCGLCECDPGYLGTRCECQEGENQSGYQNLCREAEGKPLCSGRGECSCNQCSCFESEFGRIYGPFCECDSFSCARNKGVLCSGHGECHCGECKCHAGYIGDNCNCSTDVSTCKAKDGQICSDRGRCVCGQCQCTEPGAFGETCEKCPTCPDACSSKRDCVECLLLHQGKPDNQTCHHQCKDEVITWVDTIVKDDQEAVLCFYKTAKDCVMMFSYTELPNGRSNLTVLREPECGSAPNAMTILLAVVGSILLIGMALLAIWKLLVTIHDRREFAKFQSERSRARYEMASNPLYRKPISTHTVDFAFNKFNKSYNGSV

[9] = molecular target: alpha-5-beta-1 (α5β1) integrin, human (human) (UniProt P08648); test: cell-based or functional assay
Sequence of UniProt P08648 (P08648 42-1049, chain 1 of 2): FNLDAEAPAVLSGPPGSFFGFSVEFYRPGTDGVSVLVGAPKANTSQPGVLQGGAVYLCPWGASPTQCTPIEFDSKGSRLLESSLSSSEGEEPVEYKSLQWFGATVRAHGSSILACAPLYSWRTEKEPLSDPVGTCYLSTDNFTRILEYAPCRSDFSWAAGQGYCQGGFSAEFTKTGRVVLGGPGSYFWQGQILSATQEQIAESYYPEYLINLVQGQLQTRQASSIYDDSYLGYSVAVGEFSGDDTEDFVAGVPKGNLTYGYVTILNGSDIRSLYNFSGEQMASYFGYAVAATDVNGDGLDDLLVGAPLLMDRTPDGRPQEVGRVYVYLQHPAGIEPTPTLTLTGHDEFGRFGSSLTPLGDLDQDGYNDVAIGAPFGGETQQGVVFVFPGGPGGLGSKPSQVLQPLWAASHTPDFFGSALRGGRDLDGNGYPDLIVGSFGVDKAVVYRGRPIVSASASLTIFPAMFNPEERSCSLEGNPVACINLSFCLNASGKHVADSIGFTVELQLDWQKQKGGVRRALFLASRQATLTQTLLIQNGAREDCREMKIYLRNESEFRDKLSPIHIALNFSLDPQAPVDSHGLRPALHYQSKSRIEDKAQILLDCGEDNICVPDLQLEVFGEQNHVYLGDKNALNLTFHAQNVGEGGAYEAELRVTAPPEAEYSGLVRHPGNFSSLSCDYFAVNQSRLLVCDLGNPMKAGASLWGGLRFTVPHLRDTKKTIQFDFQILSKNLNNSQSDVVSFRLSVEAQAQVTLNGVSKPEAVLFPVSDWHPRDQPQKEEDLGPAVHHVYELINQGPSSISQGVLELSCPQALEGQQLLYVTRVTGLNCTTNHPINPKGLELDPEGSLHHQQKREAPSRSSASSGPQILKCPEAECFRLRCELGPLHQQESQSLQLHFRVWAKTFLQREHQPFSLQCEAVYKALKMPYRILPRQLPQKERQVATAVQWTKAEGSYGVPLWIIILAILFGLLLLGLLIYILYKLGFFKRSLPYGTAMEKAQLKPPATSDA
Sequence of UniProt P08648 (P05556 21-798, chain 2 of 2, further chain): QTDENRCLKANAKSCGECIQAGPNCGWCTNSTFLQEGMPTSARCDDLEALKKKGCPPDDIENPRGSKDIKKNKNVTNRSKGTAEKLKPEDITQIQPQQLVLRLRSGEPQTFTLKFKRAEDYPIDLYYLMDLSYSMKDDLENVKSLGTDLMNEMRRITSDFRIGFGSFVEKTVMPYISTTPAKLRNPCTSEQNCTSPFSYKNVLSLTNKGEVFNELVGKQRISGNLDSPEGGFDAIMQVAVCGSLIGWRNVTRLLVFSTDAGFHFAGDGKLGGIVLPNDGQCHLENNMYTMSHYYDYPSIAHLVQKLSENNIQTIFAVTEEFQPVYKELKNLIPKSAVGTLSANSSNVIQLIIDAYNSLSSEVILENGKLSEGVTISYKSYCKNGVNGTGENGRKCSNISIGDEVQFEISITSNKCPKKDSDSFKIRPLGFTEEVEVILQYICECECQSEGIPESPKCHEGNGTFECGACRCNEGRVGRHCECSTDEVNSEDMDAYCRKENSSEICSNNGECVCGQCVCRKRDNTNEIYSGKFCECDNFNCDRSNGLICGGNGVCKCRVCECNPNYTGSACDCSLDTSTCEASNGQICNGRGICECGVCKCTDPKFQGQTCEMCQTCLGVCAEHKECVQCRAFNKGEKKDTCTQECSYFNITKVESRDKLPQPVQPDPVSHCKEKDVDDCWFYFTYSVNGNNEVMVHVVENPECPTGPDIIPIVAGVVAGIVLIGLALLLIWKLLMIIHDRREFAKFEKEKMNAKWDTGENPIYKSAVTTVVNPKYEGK

[10] = RCC, naïve cells within D-ECM treated overnight
[11] = RCC, naïve fibroblasts in D-ECM that was produced in presence of TGFβ1-receptor inhibitor
[12] = SB-431542 during D-ECM production
[13] = PDAC, naïve cells within D-ECM treated overnight
[14] = PDAC, naïve fibroblasts in D-ECM that was produced in presence of TGFβ1-receptor inhibitor

Molecule: CC(C)(C)n1nc(-c2ccc(Cl)cc2)c2c(N)ncnc21 [PP2]
- D-ECM induced myofibroblastic phenotype (α-SMA expression / stress fiber localization), in words ([1]; RCC): D-ECM-induced phenotype was lost
- D-ECM induced myofibroblastic phenotype (α-SMA expression / stress fiber localization), in words ([2]; PDAC): D-ECM-induced phenotype was lost

- de novo N-ECM assembly [4]: prevented de novo N-ECM assembly
Molecule: NC(=O)c1ccc(-c2nc(-c3ccc4c(c3)OCO4)c(-c3ccccn3)[nH]2)cc1 [SB-431542]
- stress fiber localization of α-SMA relative to the untreated D-ECM ([1]; RCC, D-ECM produced under TGFβ blockage, re-seeded with naïve fibroblasts): 72%
- α-SMA expression, Median [1, 10]: 1.00 a.u.
- α-SMA stress fiber localization, Median [1, 10]: 1.03 a.u.
- D-ECM induced myofibroblastic phenotype (α-SMA expression / stress fiber localization), in words ([1]; RCC): comparable
- α-SMA expression, Median [1, 11]: 0.41 a.u.
- α-SMA stress fiber localization, Median [1, 11]: 0.72 a.u.
- α-SMA expression levels relative to untreated conditions ([1]; RCC, naïve fibroblasts plated in D-ECM in presence of the agent): 100%
- myofibroblastic phenotype induced de novo by the extracted ECM, in words ([1]; naïve renal fibroblasts re-seeded in D-ECM produced in presence of SB-431542): comparable phenotypes
- fiber alignment (fibers distributed at 15° from the mode angle) [3, 12]: 36%
- ECM fiber alignments reduced to ([3]; TGFβ blockage during D-ECM production, n=21, P<0.0001): 47%
- stress fiber localization of α-SMA relative to the untreated D-ECM ([2]; PDAC, D-ECM produced under TGFβ blockage, re-seeded with naïve fibroblasts): 55%
- α-SMA expression, Median [2, 13]: 0.62 a.u.
- α-SMA stress fiber localization, Median [2, 13]: 0.96 a.u.
- D-ECM induced myofibroblastic phenotype (α-SMA expression / stress fiber localization), in words ([2]; PDAC): comparable
- α-SMA expression, Median [2, 14]: 0.73 a.u.
- α-SMA stress fiber localization, Median [2, 14]: 0.55 a.u.
- α-SMA expression levels relative to untreated conditions ([2]; PDAC, naïve fibroblasts plated in D-ECM in presence of the agent): 62%
- myofibroblastic phenotype induced de novo by the extracted ECM, in words ([2]; naïve pancreatic fibroblasts re-seeded in D-ECM produced in presence of SB-431542): comparable phenotypes
- fiber alignment (fibers distributed at 15° from the mode angle) [5, 12]: 47%
- ECM fiber alignments reduced to ([5]; TGFβ blockage during D-ECM production, n=26, P=0.0028): 51%
- reduction of TGFβ levels stored within ECMs [6]: 60%

Molecule: C[C@@H]1C[C@@H]([C@H](O)CC2CC(=O)NC(=O)C2)C(=O)[C@@H](C)C1 [cycloheximide]
- α-SMA protein outcome in naïve fibroblasts re-plated in D-ECM, in words ([2]; overnight treatment with protein synthesis inhibitor, model not specified): did not influence outcomes

- intracellular levels of α5β1 integrin activity, PDAC [7]: 0%
- intracellular levels of α5β1 integrin activity, RCC [7]: 60%
- α5β1 integrin activity localized away from 3D-adhesions, PDAC (relative to D-ECM, a.u.=1) [7]: 0.32 a.u.
- α5β1 integrin activity localized away from 3D-adhesions, RCC (relative to D-ECM, a.u.=1) [7]: 0.82 a.u.
- α-SMA expression, PDAC, median (normalized to untreated D-ECM) [7]: 0.29 a.u.
- α-SMA expression, RCC, median (normalized to untreated D-ECM) [7]: 0.58 a.u.
- α-SMA stress fiber localization, PDAC, median (normalized to untreated D-ECM) [7]: 0.54 a.u.
- α-SMA stress fiber localization, RCC, median (normalized to untreated D-ECM) [7]: 0.67 a.u.
- percentage of FAK-/- murine fibroblasts in mD-ECM undergoing myofibroblastic activation [8]: 14%
- percentage of murine cells in mD-ECM with myofibroblast activation under FAK inhibitor PF573,228 [8]: 23%
- percentage of murine fibroblasts in mD-ECM undergoing myofibroblastic activation [8]: 55%
Molecule: ALULA, functional-blocking anti αvβ5 integrin antibody

- α-SMA expression, PDAC, median (normalized to untreated D-ECM) [9]: 0.32 a.u.
- α-SMA expression, RCC, median (normalized to untreated D-ECM) [9]: 0.43 a.u.
- α-SMA stress fiber localization, PDAC, median (normalized to untreated D-ECM) [9]: 0.56 a.u.
- α-SMA stress fiber localization, RCC, median (normalized to untreated D-ECM) [9]: 0.93 a.u.
Molecule: SNAKA51, conformation-dependent anti-active α5 integrin functional antibody

- α-SMA expression, PDAC, median (normalized to untreated D-ECM) [9]: 0.71 a.u.
- α-SMA expression, RCC, median (normalized to untreated D-ECM) [9]: 0.53 a.u.
- α-SMA stress fiber localization under FAK inhibitor PF573,228, PDAC [9]: 49%
- α-SMA stress fiber localization under FAK inhibitor PF573,228, RCC [9]: 45%
- α-SMA stress fiber localization, PDAC, median (normalized to untreated D-ECM) [9]: 0.77 a.u.
- α-SMA stress fiber localization, RCC, median (normalized to untreated D-ECM) [9]: 0.89 a.u.
Molecule: mAb16, functional blocking anti-α5β1 integrin antibody
